In US20080234188A1, “Antimicrobial Peptides” (The Hospital for Sick Children, priority 2001, published 2008):
Values after ≈ are worked out from the molar mass of the structure shown. Where a SMILES comes first, the peptide text is derived from it. Where no end group is shown, it is not given here.

How the values were obtained:
[1] = tested on: Corynebacterium xerosis (C875); assay type: cell-based
Text: (§1) The bacterial strains used were E. coli C498, E. coli C500, Escherichia coli UB1005 and its antibiotic supersusceptible derivative DC2 (22); a clinical isolate of Staphylococcus epidermidis (C621); coryneform bacterial strain Corynebacterium xerosis (C875); and E. coli ATCC 25922, Staphylococcus aureus ATCC 25923, Enterococcus faecalis ATCC 29212, Bacillus subtilis ATCC 6633 and Pseudomonas aeruginosa ATCC 27853, all from American Type Culture Collection.
(§2) Peptide antibacterial activity was assessed by the method of R. Hancock et al. (Wu & Hancock (1999), J. Biol. Chem., v. 274, pp. 29-35). Test strains of bacteria from Mueller Hinton agar (MHA) plates were inoculated into 5 ml Mueller Hinton Broth (MHB) in tubes and grown overnight at 37° C. on a shaker (180 rpm). Serial dilutions of test peptides (at 10 times the required test concentrations) were made in 0.01% acetic acid, 0.2% BSA, in polypropylene or coated glass tubes as follows: the test peptide was (a) dissolved in distilled water at 20 times the required maximum concentration (enough final volume for all tests to be performed on a given day); (b) diluted into an equal volume of 0.02% acetic acid, 0.4% BSA to give 10 times the required maximum concentration; (c) serial doubling dilutions were performed in 0.01% acetic acid, 0.2% BSA to provide serial dilutions of peptides at 10 times the required test concentrations, e.g., 640, 320, 160, . . . 2.5 μg/ml. (No deleterious effects of long-term storage of peptides in these media have been detected). Overnight bacterial cultures were diluted in MHB to give 2−7×10^5 colony forming units/ml. Bacterial suspension (100 μl) was dispensed in each well; controls without bacteria were maintained in parallel. To each well was added 11 μl of 10× test peptide and plates were incubated at 37° C. for 18-24 hours, and checked again at 40-48 hours. Plates were read visually and at 600 nm in a microplate reader (Molecular Devices).
(§3) were synthesized. The antibacterial activity of these peptides was determined against both Gram-positive bacteria ([…], Corynebacterium xerosis) and Gram-negative bacteria (various strains of E. coli). The results are shown in Table 2, along with the average hydrophobicity of each peptide, calculated as described herein.
(§4) A further number of the peptides of the invention were tested for antimicrobial activity against a range of Gram-positive and Gram-negative bacteria by the assay described immediately before Example 1.

[2] = tested on: Staphylococcus epidermidis (C621); assay type: cell-based
Text: as §1, §2, §3, §4

[3] = tested on: E. coli DC2; assay: Assay of antibacterial activity (MIC), E. coli DC2; assay type: cell-based, Escherichia coli; conditions: Table 3; Gram-negative
Text: as §1, §2, §4

[4] = tested on: E. coli UB1005; assay type: cell-based, Escherichia coli; conditions: UB1005
Text: as §1, §2, §4

[5] = tested on: Rabbit RBC; assay type: cell-based
Procedure: (§5) Erythrocytes from heparinized rabbit or human blood were washed three times with phosphate-buffered saline (PBS; 5 mM phosphate buffer, 0.14 M saline, pH 7.3), and centrifuged at 1000×g for 15 min at 4° C. The erythrocytes were diluted with PBS to 4% (v/v). Dilutions of the peptides in PBS were plated in 100 μl volumes in microtitre plates (Costar 3790, polypropylene) together with 100μl of the erythrocyte suspension. PBS was used as control and 100% lysis was determined in 0.1% Triton X-100. The plates were incubated at 37° C. for 1 h and then centrifuged at 1000×g for 5 min. 100 μl aliquots of the supernatant were transferred to microtitre plates (Nunc, polystyrene), and the release of hemoglobin was monitored by measurement of the absorbance at 540 nm in a microplate reader. The results are shown in Table 6, for peptide concentrations of […]. With only one or two exceptions, little or no hemolysis was seen.

[6] = tested on: C498: E. coli, wild type strain; assay type: cell-based; conditions: for MIC C498: wild type strain
Text: as §1, §2, §3

[7] = tested on: C500: E. coli, antibiotic strain; assay type: cell-based; conditions: for MIC C500: antibiotic strain
Text: as §1, §2, §3

[8] = Hydrophobicity (hydropathy) from reverse-phase HPLC retention scale; assay type: physicochemical; design: key to Average Hydrophobicity of Core Sequence / Mean Core segment Hydrophobicity: arithmetic average of Table 1 hydropathy values of constituent residues; key to Hydropathy: hydropathy scale from HPLC retention times of model peptides (Table 1); conditions: for Average Hydrophobicity of Core Sequence: Table 2, calculated from Table 1 hydropathy values
Text: The “hydrophobicity value” of an amino acid residue means the hydrophobicity value of that residue as shown in Table 1 or as calculated by the method described herein.
The “hydrophobicity value” of an amino acid sequence or peptide means the arithmetic average of the individual hydrophobicity values of the constituent amino acid residues of the sequence.
Various hydrophobicity scales for proteins and amino acids have been described in the literature but the inventors have established the hydrophobicity scale of Table 1 based on the retention times on HPLC of a series of hydrophobic model peptides, as described in Liu and Deber (1998), Biopolymers (Peptide Science), v. 47, pp. 41-62).
The hydrophobicity value shown for each amino acid in Table 1 as “hydropathy” may be used as the hydrophobicity value for that amino acid in any peptide whose hydrophobicity value has to be calculated. The “average hydrophobicity” of a peptide containing amino acids shown in Table 1 is calculated by determining the arithmetic average of the Table 1 “hydropathy” values for the constituent amino acids of the sequence.
Peptides in accordance with the invention may also include other amino acids. For an amino acid not included in Table 1, the hydrophobicity value may be determined by the same method as described herein for obtaining the values of Table 1. For example, a peptide such as KKAAAXAAAAAXAAXAAXAAAKKKK-amide (Sequence ID No: 1) may be synthesized, where X is the amino acid whose hydrophobicity value is to be determined, and the retention time of the peptide on HPLC is determined, as described in the Examples. Similar peptides where X is Lys or Phe are also prepared and their HPLC retention times determined. The retention time, Rx, is converted to the hydropathy value H for the selected amino acid using the equation
H=(10×ΔtRx-Lys/ΔtRPhe-Lys)−5.00
where ΔtRx-Lys=retention time difference in minutes between Rx and the retention time of the most hydrophilic peptide tested (X=Lys) and where ΔtRPhe-Lys=retention time difference in minutes between the most hydrophobic peptide tested (X=Phe) and the most hydrophilic (X=Lys).
The retention time of each peptide was determined on a C4 reversed-phase column (4.6×250 mm, 300 A pore size, 10 μ particle size). Equal amounts of each peptide were injected into the column and eluted at a flow rate of 1 mL/min, utilizing a linear AB gradient (2% B/min), where buffer A was 0.1% TFA/ddH2O, and buffer B was 0.1% TFA/acetonitrile. The retention time of each peptide reported here was the average of triplicate measurements.

[9] = tested on: Human RBC; assay type: cell-based
Procedure: as §5

Row | Compound | MIC C. xerosis C875 [1] [µM] | MIC S. epidermidis C621 [2] [µM] | MIC E. coli DC2 [3] [µM] | MIC E. coli UB1005 [4] [µM] | Rabbit RBC (% lysis) 50 μM [5] [% lysis] | Rabbit RBC (% lysis) 200 μM [5] [% lysis] | MIC C498 (active/inactive) ([6]; Table 2, class symbols) | MIC C500 (active/inactive) ([7]; Table 2, class symbols) | MIC C875 (active/inactive) ([1]; Table 2, class symbols) | MIC C621 (active/inactive) ([2]; Table 2, class symbols) | Average Hydrophobicity of Core Sequence [8] | MIC C498 [6] [µM] | MIC C500 [7] [µM] | MIC C621 [2] [µM] | Mean residue hydropathy of X-residue peptide ([8]; Table 1) | Hydropathy ([8]; Table 1, of the X-residue, from HPLC retention of KKAAAXAAAAAXAAWAAXAAAKKKK-amide peptides) | Mean Core segment Hydrophobicity ([8]; Table 3) | Human RBC (% lysis) 50 μM [9] [% lysis] | Human RBC (% lysis) 200 μM [9] [% lysis] | MIC C875 [1] [µM]
1 | C[C@H](NC(=O)[C@H](C)NC(=O)[C@H](C)NC(=O)[C@H](C)NC(=O)[C@H](C)NC(=O)[C@H](C)NC(=O)[C@H](C)NC(=O)[C@H](CCCCN)NC(=O)[C@@H](N)CCCCN)C(=O)N[C@@H](C)C(=O)N[C@@H](C)C(=O)N[C@@H](C)C(=O)N[C@@H](C)C(=O)N[C@@H](C)C(=O)N[C@@H](Cc1c[nH]c2ccccc12)C(=O)N[C@@H](C)C(=O)N[C@@H](C)C(=O)N[C@@H](C)C(=O)N[C@@H](C)C(=O)N[C@@H](C)C(=O)N[C@@H](C)C(=O)N[C@@H](CCCCN)C(=O)N[C@@H](CCCCN)C(=O)N[C@@H](CCCCN)C(=O)N[C@@H](CCCCN)C(N)=O [Peptide A25] (H-KKAAAAAAAAAAAAWAAAAAAKKKK-NH2; N-terminus assumed) | 2 (≈ 4.5 µg/mL) | >64 | >64 | >64 | 0 | 1 | – | – | – | – | – | – | – | – | – | – | – | – | – | –
2 | KKATALVGAASLTAWVGLASAKKKK-NH2 | – | – | – | – | – | – | + | + | + | + | 0.62 | – | – | – | – | – | – | – | – | –
3 | CC[C@H](C)[C@H](NC(=O)[C@H](C)NC(=O)[C@H](C)NC(=O)[C@H](C)NC(=O)[C@H](CCCCN)NC(=O)[C@@H](N)CCCCN)C(=O)N[C@@H](C)C(=O)N[C@@H](C)C(=O)N[C@@H](C)C(=O)N[C@@H](C)C(=O)N[C@@H](C)C(=O)N[C@H](C(=O)N[C@@H](C)C(=O)N[C@@H](C)C(=O)N[C@@H](Cc1c[nH]c2ccccc12)C(=O)N[C@@H](C)C(=O)N[C@@H](C)C(=O)N[C@H](C(=O)N[C@@H](C)C(=O)N[C@@H](C)C(=O)N[C@@H](C)C(=O)N[C@@H](CCCCN)C(=O)N[C@@H](CCCCN)C(=O)N[C@@H](CCCCN)C(=O)N[C@@H](CCCCN)C(N)=O)[C@@H](C)CC)[C@@H](C)CC [Peptide I25] (H-KKAAAIAAAAAIAAWAAIAAAKKKK-NH2; N-terminus assumed) | <0.25 | 4 (≈ 9.51 µg/mL) | 16 (≈ 38 µg/mL) | >32 | – | – | – | – | – | – | 1.09 | 10 (≈ 23.8 µg/mL) | 10 (≈ 23.8 µg/mL) | 5 (≈ 11.9 µg/mL) | 1.09 | 4.41 | 1.09 | – | – | –
4 | C[C@H](NC(=O)[C@H](C)NC(=O)[C@H](C)NC(=O)[C@H](CO)NC(=O)[C@H](C)NC(=O)[C@H](C)NC(=O)[C@H](C)NC(=O)[C@H](CCCCN)NC(=O)[C@@H](N)CCCCN)C(=O)N[C@@H](C)C(=O)N[C@@H](C)C(=O)N[C@@H](CO)C(=O)N[C@@H](C)C(=O)N[C@@H](C)C(=O)N[C@@H](Cc1c[nH]c2ccccc12)C(=O)N[C@@H](C)C(=O)N[C@@H](C)C(=O)N[C@@H](CO)C(=O)N[C@@H](C)C(=O)N[C@@H](C)C(=O)N[C@@H](C)C(=O)N[C@@H](CCCCN)C(=O)N[C@@H](CCCCN)C(=O)N[C@@H](CCCCN)C(=O)N[C@@H](CCCCN)C(N)=O [Peptide S25] (H-KKAAASAAAAASAAWAASAAAKKKK-NH2; N-terminus assumed) | >64 | >64 | >64 | >64 | 0 | 3 | – | – | – | – | – | – | – | – | – | – | – | 0 | 0 | –
5 | C[C@H](NC(=O)[C@H](C)NC(=O)[C@H](C)NC(=O)[C@H](Cc1c[nH]c2ccccc12)NC(=O)[C@H](C)NC(=O)[C@H](C)NC(=O)[C@H](C)NC(=O)[C@H](CCCCN)NC(=O)[C@@H](N)CCCCN)C(=O)N[C@@H](C)C(=O)N[C@@H](C)C(=O)N[C@@H](Cc1c[nH]c2ccccc12)C(=O)N[C@@H](C)C(=O)N[C@@H](C)C(=O)N[C@@H](Cc1c[nH]c2ccccc12)C(=O)N[C@@H](C)C(=O)N[C@@H](C)C(=O)N[C@@H](Cc1c[nH]c2ccccc12)C(=O)N[C@@H](C)C(=O)N[C@@H](C)C(=O)N[C@@H](C)C(=O)N[C@@H](CCCCN)C(=O)N[C@@H](CCCCN)C(=O)N[C@@H](CCCCN)C(=O)N[C@@H](CCCCN)C(N)=O [Peptide W25] (H-KKAAAWAAAAAWAAWAAWAAAKKKK-NH2; N-terminus assumed) | <0.25 | <0.25 | 8 (≈ 20.8 µg/mL) | 16 (≈ 41.6 µg/mL) | – | – | – | – | – | – | – | 6 (≈ 15.6 µg/mL) | 3 (≈ 7.79 µg/mL) | 0.7 (≈ 1.82 µg/mL) | – | – | – | – | – | 0.2 (≈ 0.519 µg/mL)
